The text below walks through data of patent publication US12134620B2 (ARAXES PHARMA LLC, priority 2018, dated 2024).

Molecules are shown by their SMILES.

This assay concerns the target T1, KRAS G12C 1-169, his-tagged protein, GDP-loaded (Homo sapiens, UniProt P01116, G12C).
T1 construct: KRAS G12C 1-169, his-tagged protein, GDP-loaded; His tag
Kind of assay: Biochemical assay: covalent modification of KRAS G12C, analysed by mass spectrometry (RapidFire/TOF or Q-Exactive). Also: time not given here. Format: binding. To be noted: Modification activity, modification percentage from MS peak intensities. In short, it runs like this:
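Covalent adduct formation was quantified by intact-protein mass spectrometry, either TOF or C4 LC-Q Exactive Plus, as percent modified versus unmodified protein after deconvolution. Compounds at 8 or 32 μM final were incubated with 0.5 or 2 μM GDP-bound KRAS G12C(1-169)-His in Hepes/NaCl/MgCl2 buffer before acid quench.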
For `CC#CC(=O)N1CC2(CCN(c3cncc(-c4c(O)cccc4F)c3C#N)C2)C1` [Compound I-270, 3-(2-(but-2-ynoyl)-2,6-diazaspiro[3.4]octan-6-yl)-5-(2-fluoro-6-hydroxyphenyl)isoni-cotinonitrile], the Binding % entry is “+ (+ indicates binding activity greater than 0% and up to 50%)”.

On to `CC#CC(=O)N1CC2(CCN(c3cncc(-c4c(C)ccc5cnn(C)c45)c3C#N)C2)C1` [Compound I-271, 3-(2-(but-2-ynoyl)-2,6-diazaspiro[3.4]octan-6-yl)-5-(1,6-dimethyl-1H-indazol-7-yl)isonicotinonitrile], for which the Binding % entry is “+ (+ indicates binding activity greater than 0% and up to 50%)”.

`CC#CC(=O)N1CC2(CCN(c3cncc(-c4c(C)ccc5[nH]ncc45)c3C#N)C2)C1` [Compound I-272, 3-(2-(but-2-ynoyl)-2,6-diazaspiro[3.4]octan-6-yl)-5-(5-methyl-1H-indazol-4-yl)isonicotinonitrile]: the Binding % result was “+ (+ indicates binding activity greater than 0% and up to 50%)”.

`C=CC(=O)N1CC2(CC(=O)N(c3ncnc(-c4c(C)ccc5[nH]ncc45)c3C#N)C2)C1` [Compound I-273, 4-(2-acryloyl-7-oxo-2,6-diazaspiro[3.4]octan-6-yl)-6-(5-methyl-1H-indazol-4-yl)pyrimidine-5-carbonitrile]: the Binding % entry was “+ (+ indicates binding activity greater than 0% and up to 50%)”.

Regarding `C=CC(=O)N1CC2(CCN(c3ccnc(-c4c(C)ccc5[nH]ncc45)n3)C2)C1` [Compound I-274, 1-(6-(2-(5-methyl-1H-indazol-4-yl)pyrimidin-4-yl)-2,6-diazaspiro[3.4]octan-2-yl)prop-2-en-1-one], the Binding % entry is “+ (+ indicates binding activity greater than 0% and up to 50%)”.

Take `C=CC(=O)N1CC2(CCN(c3nccc(-c4c(C)ccc5[nH]ncc45)n3)C2)C1` [Compound I-275, 1-(6-(4-(5-methyl-1H-indazol-4-yl)pyrimidin-2-yl)-2,6-diazaspiro[3.4]octan-2-yl)prop-2-en-1-one]: the Binding % result was “+ (+ indicates binding activity greater than 0% and up to 50%)”.

Regarding `C=CC(=O)N1CC2(CCN(c3cncc(-c4c(C)ccc5[nH]nc(N)c45)c3C#N)C2)C1` [Compound I-277, 3-(2-acryloyl-2,6-diazaspiro[3.4]octan-6-yl)-5-(3-amino-5-methyl-1H-indazol-4-yl)isonicotinonitrile], the Binding % result is “++ (++ indicates binding activity from 50 to 85%)”.

As to `CC#CC(=O)N1CC2(CCN(c3cncc(-c4c(C)ccc5[nH]nc(N)c45)c3C#N)C2)C1` [Compound I-278, 3-(3-amino-5-methyl-1H-indazol-4-yl)-5-(2-(but-2-ynoyl)-2,6-diazaspiro[3.4]octan-6-yl)isonicotinonitrile], the Binding % result is “+ (+ indicates binding activity greater than 0% and up to 50%)”.

As for `Cc1ccc2[nH]ncc2c1-c1cncc(N2CCC3(CN(C(=O)/C=C/CN(C)C)C3)C2)c1C#N` [Compound I-279, (E)-3-(2-(4-(dimethylamino)but-2-enoyl)-2,6-diazaspiro[3.4]octan-6-yl)-5-(5-methyl-1H-indazol-4-yl)isonicotinonitrile], the Binding % result was “+ (+ indicates binding activity greater than 0% and up to 50%)”.

With `C=CC(=O)N1CC2(CCN(c3ncnc(-c4c(C)ccc5[nH]ncc45)n3)C2)C1` [Compound I-280, 1-(6-(4-(5-methyl-1H-indazol-4-yl)-1,3,5-triazin-2-yl)-2,6-diazaspiro[3.4]octan-2-yl)prop-2-en-1-one], the Binding % result was “+ (+ indicates binding activity greater than 0% and up to 50%)”.

Take `C=CC(=O)N1CC2(CCN(c3ncnc(-c4c(C)ccc5[nH]ncc45)c3C#N)CC2)C1C(C)C` (centres unmarked) [Compound I-281, 4-(2-acryloyl-1-isopropyl-2,7-diazaspiro[3.5]nonan-7-yl)-6-(5-methyl-1H-indazol-4-yl)pyrimidine-5-carbonitrile]: the Binding % result is “+ (+ indicates binding activity greater than 0% and up to 50%)”.
